Data as given in US20120009239A1, “Prebiotic Formulations for use with Probiotics to Increase Probiotic Growth Rate and Activity” (MASTER SUPPLEMENTS, INC., priority 2010, published 2012).

Experiments:
[1] = system: L. acidophilus NCFM (LA-1); test: Growth (turbidity) and lactic acid producing activity of L. acidophilus NCFM in MRS broth with polysorbate 80 or substitute; format: cell-based, Lactobacillus acidophilus; conditions: for Lactic Acid % / pH: additive at 0.1% in MRS; for NTU (Turbidity): additive at 0.1% in MRS (polysorbate 80 control 1.0 g per liter)
Protocol: The prebiotics of this invention can be in the same capsule or formulation as the probiotics, or in a separate dosage form. The prebiotics should be in a separate dosage form if they are naturally occurring, as opposed to adsorbed. […] Prebiotic formulations are often probiotic strain dependent. […] At specified time intervals, a 30 ml sample from each flask was aseptically transferred into a HACH […] Turbidimeter sample cell. The turbidity of each sample was read and the results were reported in NTU's. The same 30 ml sample used for the turbidity reading was transferred into a 250 ml glass beaker, and the pH was recorded. The sample was titrated using 0.1N NaOH to an endpoint of pH 6.8, and the quantity of NaOH used was recorded. The % Lactic Acid was calculated using the following formula: % Lactic Acid=((mls of 0.1N NaOH)×(0.1N)×(90 gm/mole)×(1 L/1000 ml))×100 mls of sample % Lactic Acid=(mls of 0.1N NaOH)×(0.9) (Results reported at 12 hours and 23 hours like: 12/23 in Table I below)

[2] = system: Lactobacillus paracasei Lpc-37 (F-19); test: Growth and lactic acid producing activity of Lactobacillus paracasei Lpc-37 in MRS broth; format: cell-based; conditions: for Lactic Acid % / pH: additive at 0.1% in MRS; for NTU (Turbidity): additive at 0.1% in MRS (polysorbate 80 control 1.0 g per liter)
Description: (§1) The prebiotics of this invention can be in the same capsule or formulation as the probiotics, or in a separate dosage form. The prebiotics should be in a separate dosage form if they are naturally occurring, as opposed to adsorbed. The prebiotics of this invention may be taken with carbohydrate or fiber to increase their effectiveness. Prebiotic formulations are often probiotic strain dependent. Some Lactobacillus strains, for example, respond best to a form of lecithin derived from sunflowers (Sunflower Lecithin) while others show no preference to lecithin type and respond equally well to soy lecithin. Other strains show a synergistic response when lecithin is used together with oleic acid. […] Each flask was tempered to 37° C. and aseptically inoculated with 0.14 gm of the individual probiotic strains (in Examples 5 to 10 below) to be tested. At specified time intervals, a 30 ml sample from each flask was aseptically transferred into a HACH […] Turbidimeter sample cell. The turbidity of each sample was read and the results were reported in NTU's. The same 30 ml sample used for the turbidity reading was transferred into a 250 ml glass beaker, and the pH was recorded. The sample was titrated using 0.1N NaOH to an endpoint of pH 6.8, and the quantity of NaOH used was recorded. The % Lactic Acid was calculated using the following formula: % Lactic Acid=((mls of 0.1N NaOH)×(0.1N)×(90 gm/mole)×(1 L/1000 ml))×100 mls of sample % Lactic Acid=(mls of 0.1N NaOH)×(0.9) (Results reported at 12 hours and 23 hours like: 12/23 in Table III below)

[3] = system: Lactobacillus rhamnosus—Lr-32 (LR-44); test: Growth and lactic acid producing activity of Lactobacillus rhamnosus Lr-32 in MRS broth; format: cell-based; conditions: for Lactic Acid % / pH: additive at 0.1% in MRS; for NTU (Turbidity): additive at 0.1% in MRS (polysorbate 80 control 1.0 g per liter)
Description: as §1, with “IV” for “III”

[4] = system: Lactobacillus salivarius—Ls-33 (LS-30); test: Growth and lactic acid producing activity of Lactobacillus salivarius Ls-33 in MRS broth; format: cell-based; conditions: for Lactic Acid % / pH: additive at 0.1% in MRS; for NTU (Turbidity): additive at 0.1% in MRS (polysorbate 80 control 1.0 g per liter)
Description: as §1, with “V” for “III”

[5] = system: THERALAC® Lot # 32310A, a commercial probiotic product; test: Growth of the commercial probiotic […] in MRS broth; format: cell-based; conditions: for Lactic Acid % / pH: additive at 0.1% in MRS; for NTU (Turbidity): additive at 0.1% in MRS (polysorbate 80 control 1.0 g per liter), THERALAC inoculated at 0.1%
Protocol: MRS broth was prepared with (for controls) and without (for tests) polysorbate 80 and filled into 1 liter screw cap flasks at 500 ml each and autoclaved at 121° C. for 30 minutes. Various lecithin and/or oleic acid additives, or nothing (negative control), was added to the tests flasks prior to autoclaving. The flasks were then tempered to 37° C. in a water bath and inoculated at 0.1% with […]® Lot # 32310A, a commercial probiotic product (Master Supplements, Inc., Victoria, Minn.). Capsules of […]® were opened and the contents mixed aseptically to serve as the inoculum source. At an inoculation rate of 0.1%, approximately 80 million CFU was added per ml of MRS media. […]® contains (formulation strength) the following probiotic strains at the approximate CFU values listed per gram: Lactobacillus acidophilus NCFM (LA-1): 30 billion CFU Bifidobacterium lactis B1-04 (BL-34): 30 billion CFU Lactobacillus paracasei Lpc-37 (F-19): 14 billion CFU Lactobacillus rhamnosus Lr-32 (LR-44): 6 billion CFU Bifidobacterium lactis Bi-07: 8 billion CFU Turbidity, pH and titrations (made with 0.1 N NaOH and reported as % lactic acid) were made at various times up to 23 hours. The results are presented below in Table VI for the 12 and 23-hour analyses.

[6] = system: Bifidobacterium lactic Bl-04 (BL-34); test: Growth and lactic acid producing activity of Bifidobacterium lactis Bl-04 in MRS broth; format: cell-based; conditions: for Lactic Acid % / pH: additive at 0.1% in MRS; for NTU (Turbidity): additive at 0.1% in MRS (polysorbate 80 control 1.0 g per liter)
Description: as §1, with “II” for “III”

[7] = at the concentrations studied (0.1% + 0.1%)

For CCCCCCCC/C=C\CCCCCCCC(=O)O [Oleic Acid], the “Replacement of polysorbate 80 (growth and activity), conclusion in words” value (shortened to “Replacement”) ([1]; 0.1% inclusion rate) was “somewhat effective”, the “Replacement” value ([2]; 0.1% inclusion rate) was “not as effective a replacement for polysorbate 80 as sunflower lecithin” and the “Synergy with sunflower lecithin” value [2, 7] was “does not appear to be synergistic”. The “Replacement” value ([3]; 0.1% inclusion rate) was “not as good a replacement for polysorbate 80 as sunflower lecithin”, the “Lactic Acid %” value ([3]; 12 hours) was 0.072% and the pH ([3]; 12 hours) was 6.2. For the same compound, the pH ([3]; 23 hours) was 4.1, the “Synergy with sunflower lecithin” value [3, 7] was “not synergistic” and the “Replacement” value ([4]; 0.1% inclusion rate) was “not as good a replacement”. For the same compound, the “Lactic Acid %” value ([4]; 12 hours) was 0.073%, the pH ([4]; 12 hours) was 4.4 and the pH ([4]; 23 hours) was 3.8. For the same compound, the “Replacement” value ([5]; 0.1% inclusion rate) was “acceptable replacement value for polysorbate 80”.
In the case of Polysorbate 80, the “Lactic Acid %” value ([1]; 12 hours) is reported as 1.09%, the pH ([1]; 12 hours) is reported as 4.2 and the “NTU (Turbidity)” value ([1]; 12 hours) is reported as 1855 NTU. The “Lactic Acid %” value ([1]; 23 hours) was 1.27%, the pH ([1]; 23 hours) was 4.1 and the “NTU (Turbidity)” value ([1]; 23 hours) was 2038 NTU. For the same compound, the “Lactic Acid %” value ([6]; 12 hours) was 0.57%, the pH ([6]; 12 hours) was 4.8 and the “NTU (Turbidity)” value ([6]; 12 hours) was 922 NTU. The “Lactic Acid %” value ([6]; 23 hours) was 0.84%, the pH ([6]; 23 hours) was 4.5 and the “NTU (Turbidity)” value ([6]; 23 hours) was 1434 NTU. For the same compound, the “Lactic Acid %” value ([2]; 12 hours) was 0.99%, the pH ([2]; 12 hours) was 4.2 and the “NTU (Turbidity)” value ([2]; 12 hours) was 1664 NTU. For the same compound, the “Lactic Acid %” value ([2]; 23 hours) was 1.39%, the pH ([2]; 23 hours) was 3.9 and the “NTU (Turbidity)” value ([2]; 23 hours) was 2824 NTU. The “Lactic Acid %” value ([3]; 12 hours) was 1.12%, the pH ([3]; 12 hours) was 4.0 and the “NTU (Turbidity)” value ([3]; 12 hours) was 2804 NTU. The “Lactic Acid %” value ([3]; 23 hours) was 1.67%, the pH ([3]; 23 hours) was 3.7 and the “NTU (Turbidity)” value ([3]; 23 hours) was 3776 NTU. The “Lactic Acid %” value ([4]; 12 hours) was 1.42%, the pH ([4]; 12 hours) was 3.8 and the “NTU (Turbidity)” value ([4]; 12 hours) was 3426 NTU. For the same compound, the “Lactic Acid %” value ([4]; 23 hours) was 1.68%, the pH ([4]; 23 hours) was 3.7 and the “NTU (Turbidity)” value ([4]; 23 hours) was 3931 NTU. The “Lactic Acid %” value ([5]; 12 hours) was 1.42%, the pH ([5]; 12 hours) was 3.9 and the “NTU (Turbidity)” value ([5]; 12 hours) was 3311 NTU. The “Lactic Acid %” value ([5]; 23 hours) was 1.84%, the pH ([5]; 23 hours) was 3.7 and the “NTU (Turbidity)” value ([5]; 23 hours) was 3694 NTU.
